Measured values taken from patent US8338565B2, “Macrocyclic compounds for inhibition of tumor necrosis factor alpha” (Ensemble Therapeutics Corporation, priority 2008, dated 2012).
Where two headings read alike, the source gives them in different places. Numbered stars: 1 amine (or outer) side, 2 acyl side, 3 side chain; on linkers, the order of the positions; unused ones are H or OH. Bridge positions count the residues as written; N and C are the ends. Square brackets hold non-standard residues; d marks the D form. Peptide text beside a SMILES is read from it. Tartaroyl(2R,3R-(OAc)2) = CC(=O)O[C@@H](C(=O)[*:1])[C@@H](OC(C)=O)C(=O)[*:2]; Phe(4-COOH) = N[C@@H](Cc1ccc(C(=O)O)cc1)C(=O)O; Bip = N[C@@H](Cc1ccc(-c2ccccc2)cc1)C(=O)O; dBip = N[C@H](Cc1ccc(-c2ccccc2)cc1)C(=O)O; dPhe(4-NH2) = Nc1ccc(C[C@@H](N)C(=O)O)cc1; Phe(4-Br) = N[C@@H](Cc1ccc(Br)cc1)C(=O)O; Phe(4-NH2) = Nc1ccc(C[C@H](N)C(=O)O)cc1; d(hPhe) = N[C@H](CCc1ccccc1)C(=O)O; hPhe = N[C@@H](CCc1ccccc1)C(=O)O; d4Pal = N[C@H](Cc1ccncc1)C(=O)O; d2Thi = N[C@H](Cc1cccs1)C(=O)O; Suc = O=C(CCC(=O)[*:2])[*:1]; βAla = NCCC(=O)O

Columns and labels:
[1] = biological target: T1, TNFα / TNFα receptor (TNFα R1/Fc) (Homo sapiens, UniProt P01375); test: Inhibition of binding of TNFα to the TNFα receptor (plate ELISA competition); conditions: Table 2
T1 construct: purchased R&D Systems
Procedure, shortened: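 Plates were coated with TNFα at 15 nM. Test compound and 8.33 nM receptor-Fc (PBST, 2% DMSO) were first mixed in solution for 30 min at room temperature, then transferred to the plates for another 30 min. Competition was read by absorbance at 450 nm after HRP anti-human IgG Fc detection with TMB.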

[2] = system: TNF-α (degradation of IkB in HeLa cells or A431 cells); test: Human cell-based assay: inhibition of TNF-α induced degradation of IkB; conditions: HeLa or A431 cells; for inhibition at 5 µM: 5 μM compound, read-out: Inhibition at Various Compound Concentrations, 5 μM; for inhibition at 10 µM: 10 μM compound, read-out: Inhibition at Various Compound Concentrations, 10 μM
Method: We used a human cell-based assay to determine the TNF-α antagonistic activity of the compounds of this invention based upon the ability of the compounds to inhibit the degradation of IkB in those cells. The assay was performed on either HeLa cells or A431 cells.
On Day 1, wells of a 24-well tissue culture plate were seeded with cells that had been harvested from cultures in T-75 flasks by standard trypsin/EDTA treatment. The harvested cells were suspended in EMEM/10% FBS/P/S (100,000 HeLa cells/mL or 200,000 A431 cells/mL) and 1 mL aliquots were placed into each well. The cells were incubated overnight at 37° C. in a humidified CO2 incubator. On day 2, the cells were approximately 95% confluent.
Test and control compounds were diluted to a 1 mM solution by dilution in DMSO. The assay was run in Costar tubes. Into each tube was placed 2.5 or 5.0 μL of test compound (for testing 5 μM and 10 μM concentrations, respectively), 2.5 μL of 100× TNF-α solution (200 ng/mL TNF-α in EMEM containing 1μg/mL cycloheximide) and, for those tubes containing 2.5 μL of compound, an additional 2.5 μL of DMSO. To each tube was then added 0.5 mL of EMEM containing 1μg/mL cycloheximide. Negative control tubes contained either a) no compound, or b) no TNF-α. Tubes were then incubated for 30 minutes at room temperature.
Once incubation had begun, the media was aspirated from the cells in the 24-well plates. Sufficient EMEM/10% FBS/P/S containing 1 ug/mL cycloheximide was then added to cover the cells (approximately 3 mL) and the cells were retuned to the 37° C. humidified CO2 incubator until compound incubation was completed. The media was then aspirated from the cells, 0.2 mL of the compound solution was added and the cells re-incubated at 37° C. for 30 minutes. The plates were then placed on ice, the compound solution was aspirated from each well, and the cells washed once with 1 mL of cold PBS. Cells were then fixed with 500 μL of 3.7% formaldehyde in PBS (“fix solution”) for 20 minutes at room temperature. The fix solution was decanted and the cells permeabilized by 4× washing with 500 uL PBS/0.1% Triton X-100. After the final permeabilization wash, the cells were treated with 500 uL of Odyssey blocking buffer (OBB) and incubated at room temperature with shaking for 90 minutes.
The OBB was decanted and then to each well was then added 125 μL each of mouse anti-IkB CST#4814 (diluted 1:200 in OBB) and rabbit anti-beta-tubulin CST#2146 (diluted 1:200 in OBB). Plates were sealed with parafin and incubated overnight at room temperature with shaking.
On day 3, the antibody solution was removed from the cells and the cells were washed 5× with 0.5 mL PBST for five minutes each on a shaker. To each well was then aded 125 μL of a secondary antibody solution containing goat anti-mouse IgG-IRDye 800 and goat anti-rabbit IgG-IRDye (each diluted 1:500 in OBB+0.2% Tween 20). The plates were covered with aluminum foil and incubated for 1 hour at room temperature with shaking. The secondary antibody solution was removed and the cells washed 3× with 0.5 mL PBST for five minutes each on a shaker. Cells were then scanned by LICOR with the following settings: 700 intensity=6.0, 800 intensity=6.5; microplate2 settings with 3.0 mm offset; 169 resolution. LICOR values were fitted to an equation for a sigmoidal curve and IC50 values calculated from the fitted parameters. […] Blank cells indicate that the compound was not tested at that concentration. Certain compounds that were tested more than once and the values reflect the average of the multiple tests.

[3] = read-out: Activity (IC50, inhibition of TNFα binding to TNFα R1/Fc)

T1 sequence (P01375 77-233 limits assumed, species assumed): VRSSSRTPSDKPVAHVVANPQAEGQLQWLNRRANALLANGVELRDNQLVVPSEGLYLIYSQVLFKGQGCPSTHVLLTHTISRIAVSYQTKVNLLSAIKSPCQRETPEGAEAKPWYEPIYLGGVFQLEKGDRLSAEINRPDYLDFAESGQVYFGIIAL

Structure (SMILES)	IC50 [1, 3] [µM]	also measured
C[C@H](NC(=O)[C@@H]1Cc2ccc(cc2)OCC(=O)N[C@@H](Cc2cccs2)C(=O)N[C@@H](Cc2ccc(-c3ccccc3)cc2)C(=O)N[C@@H](Cc2ccccc2)C(=O)N1)C(=O)O [Compound 326]	< 10	inhibition at 5 µM [2]: 10 to 50%; inhibition at 10 µM [2]: 10 to 50%
C[C@@H](NC(=O)[C@@H]1Cc2ccc(cc2)OCC(=O)N[C@@H](Cc2cccs2)C(=O)N[C@H](Cc2ccc(-c3ccccc3)cc2)C(=O)N[C@@H](Cc2ccccc2)C(=O)N1)C(=O)O [Compound 384]	< 10	inhibition at 5 µM [2]: < 10%; inhibition at 10 µM [2]: < 10%
O=C(O)CCCNC(=O)[C@@H]1Cc2ccc(cc2)OCC(=O)N[C@@H](Cc2ccc(-c3ccncc3)cc2)C(=O)N[C@H](Cc2ccc(-c3ccccc3)cc2)C(=O)N[C@@H](CCc2ccccc2)C(=O)N1 [Compound 580]	< 10	
CC(=O)NCCCC[C@@H]1NC(=O)COc2ccc(cc2)C[C@@H](C(=O)O)NC(=O)[C@H](CCc2ccccc2)NC(=O)[C@@H](Cc2ccc(-c3ccccc3)cc2)NC1=O [Compound 508]	< 10	
COc1cccc(C[C@@H]2NC(=O)[C@H](Cc3cccs3)NC(=O)COc3ccc(cc3)C[C@@H](C(=O)O)NC(=O)[C@H](Cc3ccccc3)NC2=O)c1 [Compound 408]	> 100	
O=C(O)CCNC(=O)[C@@H]1Cc2ccc(cc2)C(=O)NCCC(=O)N[C@H](CCc2ccccc2)C(=O)N[C@@H](Cc2ccc(-c3ccccc3)cc2)C(=O)N[C@H](Cc2ccccc2)C(=O)N1 [Compound 420] ([βAla][d(hPhe)][Bip][dF][Phe(4-COOH)][βAla]-OH; lactam N-5)	> 100	
O=C1COc2ccc(cc2)C[C@@H](C(=O)O)NC(=O)[C@H](CCc2ccccc2)NC(=O)[C@@H](Cc2ccc(-c3cccnc3)cc2)NC(=O)[C@H](Cc2ccncc2)N1 [Compound 665]	10 to 30	
O=C1CCC(=O)N[C@H](CCc2ccccc2)C(=O)N[C@@H](Cc2ccc(-c3ccccc3)cc2)C(=O)N[C@H](Cc2ccccc2)C(=O)N[C@@H](C(=O)O)Cc2ccc(cc2)N1 [Compound 172] ([d(hPhe)][Bip][dF][dPhe(4-NH2)]-OH; linker N-4 via Suc)	< 10	
O=C1CCC(=O)N[C@H](CCc2ccccc2)C(=O)N[C@@H](Cc2ccc(-c3ccccc3Cl)cc2)C(=O)N[C@H](Cc2ccccc2)C(=O)N[C@H](C(=O)O)Cc2ccc(cc2)N1 [Compound 170]	30 to 100	
O=C1CCC(=O)N[C@H](Cc2cccs2)C(=O)N[C@@H](Cc2ccc(-c3ccccc3)cc2)C(=O)N[C@H](Cc2ccccc2)C(=O)N[C@H](C(=O)O)CCCCN1 [Compound 42] ([d2Thi][Bip][dF]K-OH; linker N-4 via Suc)	> 100	
CN(C(=O)[C@@H]1Cc2ccc(cc2)OCC(=O)N[C@@H](Cc2cccs2)C(=O)N[C@H](Cc2ccc(-c3ccccc3)cc2)C(=O)N[C@@H](CCc2ccccc2)C(=O)N1)[C@@H](Cc1ccccc1)C(=O)O [Compound 621]		IC50 ([1]; Activity (IC50, inhibition of TNFα binding to TNFα R1/Fc)): < 10 µM
COc1ccc(C[C@@H]2NC(=O)[C@@H](Cc3ccc(-c4ccccc4)cc3)NC(=O)[C@H](Cc3ccncc3)NC(=O)COc3ccc(cc3)C[C@@H](C(=O)O)NC2=O)cc1 [Compound 639]	< 10	
O=C1CCC(=O)N[C@H](Cc2cccs2)C(=O)N[C@@H](Cc2ccc(-c3ccccc3)cc2)C(=O)N[C@H](Cc2ccncc2)C(=O)N[C@H](C(=O)O)Cc2ccc(cc2)N1 [Compound 50] ([d2Thi][Bip][d4Pal][Phe(4-NH2)]-OH; linker N-4 via Suc)	> 100	
O=C1N[C@H](Cc2ccco2)C(=O)N[C@@H](C(=O)O)Cc2ccc(cc2)NC(=O)[C@H](O)[C@@H](O)C(=O)N[C@H](Cc2ccccc2)C(=O)N[C@H]1Cc1ccc(Br)cc1 [Compound 161]	> 100	
CC(C)(C)Oc1ccc(C[C@@H]2NC(=O)[C@H](Cc3ccc(-c4ccccc4)cc3)NC(=O)[C@H](Cc3cccs3)NC(=O)COc3ccc(cc3)C[C@@H](C(=O)O)NC2=O)cc1 [Compound 347]	30 to 100	
O=C1CCNC(=O)c2ccc(cc2)C[C@@H](C(=O)O)NC(=O)[C@@H](Cc2ccccc2)NC(=O)[C@@H](Cc2ccc(-c3ccccc3)cc2)NC(=O)[C@H](CCc2ccccc2)N1 [Compound 468] ([βAla][hPhe][dBip][dF][Phe(4-COOH)]-OH; lactam N-5)	> 100	
COc1cccc(C[C@H]2NC(=O)[C@H](Cc3cccs3)NC(=O)COc3ccc(cc3)C[C@@H](C(=O)O)NC(=O)[C@H](Cc3ccccc3)NC2=O)c1 [Compound 407]	> 100	

Further lines, with some results ahead:

IC50 [1, 3] [µM]	Structure (SMILES)	also measured
< 10	CC(=O)O[C@H]1C(=O)Nc2ccc(cc2)C[C@H](C(=O)N[C@@H](Cc2ccccc2)C(=O)O)NC(=O)[C@@H](Cc2ccccc2)NC(=O)[C@H](Cc2ccc(Br)cc2)NC(=O)[C@@H](Cc2cccs2)NC(=O)[C@@H]1OC(C)=O [Compound 410] ([d2Thi][Phe(4-Br)][dF][dPhe(4-NH2)]F-OH; linker N-4 via Tartaroyl(2R,3R-(OAc)2))	inhibition at 5 µM [2]: < 10%; inhibition at 10 µM [2]: 10 to 50%
> 100	CC(=O)N[C@H]1CC(=O)Nc2ccc(cc2)C[C@@H](C(=O)O)NC(=O)[C@@H](Cc2ccccc2)NC(=O)[C@H](Cc2ccc(-c3ccccc3)cc2)NC(=O)[C@@H](Cc2cccs2)NC1=O [Compound 375] (Ac-D[d2Thi][Bip][dF][Phe(4-NH2)]-OH; lactam 1-5)	
10 to 30	O=C1COc2ccc(cc2)C[C@@H](C(=O)O)NC(=O)[C@@H](CCc2ccccc2)NC(=O)[C@H](Cc2ccc(-c3ccccc3)cc2)NC(=O)[C@@H](Cc2cccs2)N1 [Compound 145]	
> 100	O=C1N[C@H](Cc2ccccc2)C(=O)N[C@@H](C(=O)O)Cc2ccc(cc2)NC(=O)[C@H](O)[C@@H](O)C(=O)N[C@H](Cc2cccs2)C(=O)N[C@H]1Cc1ccc(-c2ccccc2)cc1 [Compound 184]	
> 100	O=C(O)[C@@H]1Cc2ccc(cc2)NC(=O)[C@H](O)[C@@H](O)C(=O)N[C@H](Cc2cccs2)C(=O)N[C@H](Cc2ccc(-c3ccccc3)cc2)C(=O)N[C@H](Cc2ccccc2)C(=O)N1 [Compound 269]	
30 to 100	O=C(O)[C@H](Cc1ccccc1)NC(=O)[C@@H]1Cc2ccc(cc2)NC(=O)[C@H](O)[C@@H](O)C(=O)N[C@@H](Cc2cccs2)C(=O)N[C@H](Cc2ccc(Br)cc2)C(=O)N[C@@H](Cc2ccccc2)C(=O)N1 [Compound 439]	
> 100	C[C@@H](NC(=O)[C@@H]1Cc2ccc(cc2)NC(=O)CCC(=O)N[C@H](Cc2cccs2)C(=O)N[C@@H](Cc2ccc(-c3ccccc3)cc2)C(=O)N[C@H](CCc2ccccc2)C(=O)N1)C(=O)O [Compound 446] ([d2Thi][Bip][d(hPhe)][Phe(4-NH2)][dA]-OH; linker N-4 via Suc)	
< 10	O=C(O)[C@H](Cc1ccccc1)NC(=O)[C@H]1Cc2ccc(cc2)NC(=O)[C@H](O)[C@@H](O)C(=O)N[C@@H](Cc2cccs2)C(=O)N[C@H](Cc2ccc(Br)cc2)C(=O)N[C@@H](Cc2ccccc2)C(=O)N1 [Compound 438]	
< 10	O=C(NCS(=O)(=O)O)[C@@H]1Cc2ccc(cc2)NC(=O)[C@H](O)[C@@H](O)C(=O)N[C@H](Cc2cccs2)C(=O)N[C@@H](Cc2ccc(-c3ccccc3)cc2)C(=O)N[C@H](CCc2ccccc2)C(=O)N1 [Compound 593]	
> 100	O=C(O)CNC(=O)[C@@H]1Cc2ccc(cc2)NC(=O)CCC(=O)N[C@H](Cc2ccccc2)C(=O)N[C@@H](Cc2ccc(-c3ccccc3)cc2)C(=O)N[C@H](CCc2ccccc2)C(=O)N1 [Compound 462] ([dF][Bip][d(hPhe)][Phe(4-NH2)]G-OH; linker N-4 via Suc)	
